Earlier results in patent US3981916A, “Reduction of nitroparaffin substrates to their corresponding oximes using a silver salt catalyst” (priority 1970, dated 1976).
Like-named read-outs stand apart in the source and are kept apart here.

[1] = 25°C, aqueous solution, literature values (Table I)

Structure (SMILES) | pKa (First Acid Dissociation Constant) [1] | pKa (First Acid Dissociation Constant) (water)
CN(C)C(=N)N(C)C [Tetramethylguanidine] | 11.50 | 
NCCCCCCN [1,6-diaminohexane] |  | 11.1
CCCCN [n-Butylamine] |  | 10.59
NCCNCCNCCNCCN [Tetraethylenepentamine] |  | 9.9
NCCN [Ethylenediamine] | 9.98 | 
NCCCN [1,3-diaminopropane] |  | 10.54
CCCCCCN [n-Hexylamine] |  | 10.40
NCCNCCNCCN [Triethylenetetramine] | 9.92 | 
NCCCNCCCN [3,3'-iminobispropylamine] |  | 10.70
CN(C)CCN(C)C [N,N,N,N',-Tetramethyl-ethylenediamine] |  | 5.85
OCCNCCO [Diethanolamine] |  | 9.35
